Results published in patent publication US20170202822A1, “METHODS AND COMPOSITIONS FOR ENHANCING CANCER THERAPY” (THE SCRIPPS RESEARCH INSTITUTE, priority 2014, published 2017).

How the values were obtained:
[1] = test system: MCF7 cells; experiment: Growth of MCF7 cells in estrogen-free, phenol red-free medium, crystal violet staining; assay type: cell-based, human; conditions: for proliferation with 4-hydroxytamoxifen: 10 nM E2 + 1 μM 4-hydroxytamoxifen; for sensitization to tamoxifen's antiproliferative effects: 1 μM 4-hydroxytamoxifen
Description: (A) Growth of control (shCtrl) vs NAMPT knockdown (shNAMPT) MCF7 cells cultured for 7 days in EMEM medium supplemented with 10% FBS, or in phenol red-free EMEM supplemented with 10% charcoal-stripped estrogen-free FBS. Growth was measured by crystal violet staining after 7 days in culture. Groups were compared by unpaired two-tailed Student's t-test in n=3 (***P<0.001). (B) Growth of control (shCtrl) vs NAMPT knockdown (shNAMPT) MCF7 cells cultured in estrogen-free, phenol red-freeEMEM medium supplemented with 10% charcoal-stripped FBS. […] Growth was measured by crystal violet staining after 7 days in culture. Groups were compared by unpaired two-tailed Student's t-test in n=3 (*P<0.05,[…],***P<0.001). (C) Changes in NAD^+ levels impact the subcellular localization of ERα. […] Estrogen starvation and treatment were performed in phenol red-free EMEM supplemented with 10% charcoal-stripped FBS. ERα was detected by immunofluorescence using Pierce anti-ERα antibody (MA1-39539). Representative images are shown for all conditions.
To further analyze the regulatory role of NAMPT and the NAD^+ salvage pathway in estrogen-dependent growth and tamoxifen treatment, we first analyzed the capacity of MCF7 variant cells to grow in estrogen-free media. […] Importantly, low NAMPT expressing MCF7 cells (shNAMPT) had the capacity to proliferate even in the absence of estrogens (FIG. 6A). […] Furthermore, NAM treatment sensitized shCT and re-sensitized shNAMPT cells to tamoxifen's antiproliferative effects (FIG. 6B). In FIG. 4C, we analyzed the ERα localization in MCF7 cells when the cells were cultured in EMEM medium supplemented with 10% FBS, serum that contain hormones and growth factors that modulate ERα localization independently of the presence of estrogens (Muriel Le Romancer et al., Endocrine Reviews, October 2011, 32(5):597-622). In order to deeply analyze the role of NAMPT and NAM treatment on modulating ligand-dependent ERα nuclear localization, we starved the cells from any growth factor and hormones including estrogens for 72 hours by growing them in phenol red-free EMEM/10% charcoal-stripped FBS. Then, breast cancer cells were cultured for 24 hours with or without 10 nM E2, or with 10 nM E2 plus 10 mM NAM. […] In the absence of estrogens, ERα was distributed in the cytoplasm of control cells while in shNAMPT expressing cells ERα was concentrated in the nuclei.

[2] = test system: T47D cells; experiment: Proliferation of T47D cells (shCtrl vs shNAMPT) by crystal violet staining; assay type: cell-based, human; conditions: 14 days
Description: (§1) NAMPT knockdown (shNAMPT) reduced NAMPT (A) mRNA and (B) protein expression in MCF7 and T47D cells compared to controls transduced with scrambled shRNA (shCtrl). (A) NAMPT mRNA levels were analyzed by real time PCR and are expressed relative to beta-D-glucuronidase (GUSB) (***P<0.001) (n=3). (B) NAMPT protein expression was analyzed by Western blot analysis. Quantification of NAMPT protein was related to β-tubulin expression. […] Cellular NAD was analyzed in whole cell extracts of 1×10^6 cells. Metabolite concentrations were determined using a NAD+/NADH fluorescence detection kit (Cell Technology, Inc) and normalized to protein content. […] Proliferation was measured based on crystal violet staining and is expressed as % of proliferation of untreated cells. […]
(§2) (A) Effect of nicotinamide treatment (10 mM NAM) on proliferation of control (shCtrl) vs NAMPT-knockdown (shNAMPT) MCF7 and T47D cells exposed to 1 μM or 0.1 μM 4-hydroxytamoxifen (tamoxifen active metabolite) respectively for 14 days. Proliferation was measured based on crystal violet staining and is expressed as % of proliferation of untreated cells (no 4-hydroxytamoxifen, no NAM). […] NAD^+ and NADH were analyzed independently in whole cell extracts of 1×10^6 cells. Metabolite concentrations were determined using a NAD^+/NADH fluorescence detection kit (Cell Technology, Inc). […] Nuclei were detected by DAPI staining. […]

[3] = test system: MCF7 cells; experiment: Proliferation of MCF7 cells (shCtrl vs shNAMPT) by crystal violet staining; assay type: cell-based, human; conditions: for restoration of tamoxifen sensitivity: ER+/NAMPT-low MCF7 cells, 1, 5 or 10 mM NAM or 1 or 5 mM NR
Description: NAMPT knockdown (shNAMPT) reduced NAMPT (A) mRNA and (B) protein expression in MCF7 and T47D cells compared to controls transduced with scrambled shRNA (shCtrl). (A) NAMPT mRNA levels were analyzed by real time PCR and are expressed relative to beta-D-glucuronidase (GUSB) (***P<0.001) (n=3). (B) NAMPT protein expression was analyzed by Western blot analysis. Quantification of NAMPT protein was related to β-tubulin expression. […] Cellular NAD was analyzed in whole cell extracts of 1×10^6 cells. Metabolite concentrations were determined using a NAD+/NADH fluorescence detection kit (Cell Technology, Inc) and normalized to protein content. (D) Proliferation of control (shCtrl) vs NAMPT-knockdown (shNAMPT) MCF7 and T47D cells, untreated or treated with 0.001, 0.05, 0.1, 1, or 5 μM 4-hydroxytamoxifen (tamoxifen active metabolite) for 14 days. Proliferation was measured based on crystal violet staining and is expressed as % of proliferation of untreated cells. Groups were compared by unpaired two-tailed Student's t-test in n=4 (***P<0.001, **P<0.01 *P<0.05).
(A) Effect of nicotinamide treatment (10 mM NAM) on proliferation of control (shCtrl) vs NAMPT-knockdown (shNAMPT) MCF7 and T47D cells exposed to 1 μM or 0.1 μM 4-hydroxytamoxifen (tamoxifen active metabolite) respectively for 14 days. Proliferation was measured based on crystal violet staining and is expressed as % of proliferation of untreated cells (no 4-hydroxytamoxifen, no NAM). Groups were compared by unpaired two-tailed Student's t-test in n=4 (***P<0.001, **P<0.01 *P<0.05). (B) NAMPT KD cells present reduced absolute levels of NAD′ and nicotinamide treatment induces NAD^+ and NADH levels in both control (CT) or NAMPT KD (shNAMPT) breast cancer cells. NAD^+ and NADH were analyzed independently in whole cell extracts of 1×10^6 cells. Metabolite concentrations were determined using a NAD^+/NADH fluorescence detection kit (Cell Technology, Inc). (C) Distribution of ERα in MCF7 shCT or shNAMPT cells, measured after 7 days of cell treatment with 10 mM nicotinamide in EMEM medium, supplemented with 10% FBS. ERα localization was detected by immunofluorescence using anti-ERα clone SP1 (Thermo Fisher). Nuclei were detected by DAPI staining. Representative images are shown.
Nicotinamide riboside (NR) was more efficient than nicotinamide in blocking low-NAMPT-induced tamoxifen resistance. Proliferation of control (shCT) vs NAMPT-knockdown (shNAMPT) MCF7 cells treated with 1 or 5 μM 4-hydroxytamoxifen (tamoxifen active metabolite) for 7 days with or without (A) 1, 5 or 10 mM nicotinamide (NAM) or (B) 1 or 5 mM nicotinamide riboside (NR). Proliferation was measured based on crystal violet staining and is expressed as % of proliferation of untreated cells (no 4-hydroxytamoxifen). Groups were compared by unpaired two-tailed Student's t-test in n=4 (***P<0.001, **P<0.01 *P<0.05).

[4] = test system: ERα
[5] = test system: MDA-MB-231 cells; experiment: Proliferation of triple negative MDA-MB-231 cells by crystal violet staining; assay type: cell-based, human; conditions: 10 mM NAM, 0.5, 1 or 5 μM 4-hydroxytamoxifen, 14 days
Description: Proliferation of triple negative breast MDA-MB-231 cells, untreated or treated with 0.5, 1 or 5 μM 4-hydroxytamoxifen (tamoxifen active metabolite) for 14 days, with or without treatment with 10 mM nicotinamide (NAM). Proliferation was measured based on crystal violet staining and is expressed as % of proliferation of untreated cells (no 4-hydroxytamoxifen, no NAM). Groups were compared by unpaired two-tailed Student's t-test in n=3 (**P<0.01).

[6] = test system: cellular NAD^+; experiment: Cellular NAD+ in whole cell extracts, NAD+/NADH fluorescence detection kit; assay type: cell-based, human; conditions: MCF7 cells expressing basal or low NAMPT levels
Description: as §1, §2

[7] = 1 or 5 μM 4-hydroxytamoxifen, 7 days
[8] = MCF7 shNAMPT, 10 mM NAM, 7 days

C[C@]12CC[C@@H]3c4ccc(O)cc4CC[C@H]3[C@@H]1CC[C@@H]2O [17-β-estradiol]
proliferation with 17-β-estradiol ([1]; MCF7 shCT, 10 nM E2, 7 days, estrogen-free medium): induced proliferation

4-hydroxytamoxifen
anti-proliferative efficacy of 4-hydroxytamoxifen on reduction of NAMPT expression ([2]; T47D shNAMPT vs shCtrl, 0.001-5 μM): dramatically reduced the anti-proliferative efficacy
proliferation with 4-hydroxytamoxifen ([1]; MCF7 shCT, 7 days): able to reduce proliferation
proliferation with 4-hydroxytamoxifen ([1]; MCF7 shNAMPT, 7 days): not in shNAMPT
anti-proliferative efficacy of 4-hydroxytamoxifen on reduction of NAMPT expression ([3]; MCF7 shNAMPT vs shCtrl, 0.001-5 μM, 14 days): dramatically reduced the anti-proliferative efficacy

NC(=O)c1ccc[n+]([C@@H]2O[C@H](CO)[C@@H](O)[C@H]2O)c1 [nicotinamide riboside]
activity in restoring Tamoxifen sensitivity compared with NAM ([3]; ER+/NAMPT low (shNAMPT) MCF7 cells, 1 or 5 mM NR, 1 or 5 μM 4-hydroxytamoxifen, 7 days): more potent activity than NAM
restoration of tamoxifen sensitivity [3, 7]: restore tamoxifen sensitivity

NC(=O)c1cccnc1 [NAM, nicotinamide]
ERα nuclear localization with NAM ([4]; MCF7 control and shNAMPT, estrogen starved 72 h, 10 nM E2 plus 10 mM NAM, 24 h): inhibited ERα nuclear localization
ERα expression and nuclear localization ([4]; MCF7 shCT or shNAMPT, 10 mM nicotinamide, 7 days, EMEM with 10% FBS): do not affect estrogen receptor alpha (ERα) expression and nuclear localization
effect of NAM on anti-proliferative efficacy of 4-hydroxytamoxifen ([2]; T47D shCtrl and shNAMPT, 10 mM NAM, 0.1 μM 4-hydroxytamoxifen): enhanced the anti-proliferative efficacy of 4-hydroxytamoxifen
sensitization to tamoxifen's antiproliferative effects ([1]; MCF7 shCT, 10 mM NAM, 7 days): sensitized
estrogen-induced proliferation ([1]; MCF7 shCT, 10 mM NAM, 7 days): dramatically inhibited
sensitization to tamoxifen's antiproliferative effects [1, 8]: re-sensitized
estrogen-independent growth [1, 8]: dramatically inhibited
sensitization to tamoxifen-induced antiproliferative effects [5]: sensitized MDA-MB-231 to tamoxifen-induced antiproliferative effects
NAD+ levels after NAM treatment [6]: induced significantly NAD^+ levels
restoration of tamoxifen sensitivity [3, 7]: restore tamoxifen sensitivity
effect of NAM on anti-proliferative efficacy of 4-hydroxytamoxifen ([3]; MCF7 shCtrl and shNAMPT, 10 mM NAM, 1 μM 4-hydroxytamoxifen, 14 days): enhanced the anti-proliferative efficacy of 4-hydroxytamoxifen
